In brackets after ≈: the same amount, converted by molar mass. Where two headings read alike, the source gives them in different places.
Experiments:
C. albicans NCPF3281 = experiment: Candida panel MIC, serial dilution in 96-well plates; type: cell-based, Candida albicans; details: Candida albicans, NCPF3281; Table 4, common panel; 24 hours, ≥50% inhibition; read-out: MIC C. albicans NCPF3281
Experimental: (§1) The minimum inhibitory concentration of test compounds were determined in a panel of Candida species (see Table 4 below), using the a serial dilution method in 96-well plates using the following protocol.
(§2) Starter cultures of fungal strains to be tested were grown in 3 mL of RPMI 2% glucose media incubated at 37° C. with shaking at 200 rpm overnight. The culture media used was 900 mL H2O; 10.4 g RPMI 1640 (with L-glutamine and a pH indicator but without bicarbonate); 34.5 g MOPS and 18 g glucose. The pH of the media was adjusted to 7.0 with 1 M sodium hydroxide.
(§3) Solutions of the compound to be tested were prepared by dissolving the compound in DMSO and subsequently into media to the desired concentrations. 200 μL of compound solution was then added to the wells of the 96-well plate using a serial dilution method row-by row of the plate to give a compound concentration gradient across the plate of from 128 μg/mL to 0.25 μg/mL. The last two rows of each plate were control rows containing the culture media alone and the media plus fungi.
(§4) The fungi starter cultures were diluted 1:10 in water in cuvettes. This was then further diluted to an optical density (OD600) of 0.01 in media. 100 μL of the fungi was added to each well giving a starting concentration of fungus of 0.5-5×10^5/mL. One species of fungus was used on each plate. The plates were then held at 37° C. for 24 hours.
(§5) A plate reader was used to measure growth in each well at OD530 nm and the MIC was determined for each test compound. The MIC is defined as the lowest concentration giving rise to inhibition of ≥50% of that of the drug-free control well containing the fungus and media.

C. glabrata NCPF8018 = experiment: as above; type: cell-based, Candida glabrata; details: Nakaseomyces glabratus
Experimental: as §1, §2
(§6) Solutions of the compound to be tested were prepared by dissolving the compound in DMSO and subsequently into media to the desired concentrations. […] The last two rows of each plate were control rows containing the culture media alone and the media plus fungi.
as §4, §5

C. krusei NCPF3876 = experiment: microbe, parasite or virus in culture; type: cell-based, Candida krusei; details: Pichia kudriavzevii
Experimental: as §1, §2, §6, §4, §5

C. parapsilosis NCPF3209 = experiment: microbe, parasite or virus in culture; type: cell-based, Candida parapsilosis; details: Lodderomyces parapsilosis
Experimental: as §1, §2, §6, §4, §5

C. auris TDG1912 = experiment: Candida panel MIC, serial dilution in 96-well plates; type: cell-based; details: Candidozyma auris, TDG1912; Table 4; 24 hours, ≥50% inhibition; read-out: MIC C. auris TDG1912
Experimental: as §1, §2, §3, §4, §5

C. tropicalis NCPF8760 = experiment: as above; type: cell-based
Experimental: as §1, §2, §3, §4, §5

Candida auris TDG2211 = experiment: microbe, parasite or virus in culture; type: cell-based; details: Candidozyma auris, TDG2211; Table 4, extended panel; 24 hours, ≥50% inhibition; read-out: MIC Candida auris TDG2211
Experimental: as §1, §2, §6, §4, §5
(§7) The Candida auris strains shown in Table 7 were either taken from the National Collection of Pathogenic Fungi (NCPF) or collected as part of ongoing surveillance studies. The strains were characterised as follows.

Candida auris TDG2506 = experiment: microbe, parasite or virus in culture; type: cell-based; details: Candidozyma auris, TDG2506; Table 4, extended panel; 24 hours, ≥50% inhibition; read-out: MIC Candida auris TDG2506
Experimental: as §1, §2, §6, §4, §5, §7

Candida auris TDG1102 = experiment: Candida panel MIC, serial dilution in 96-well plates; type: cell-based; details: Candidozyma auris, TDG1102; Table 4, extended panel; 24 hours, ≥50% inhibition; read-out: MIC Candida auris TDG1102
Experimental: as §1, §2, §3, §4, §5

Candida auris TDG2512 = experiment: as above; type: cell-based; details: Candidozyma auris, TDG2512; Table 4, extended panel; 24 hours, ≥50% inhibition; read-out: MIC Candida auris TDG2512
Experimental: as §1, §2, §3, §4, §5

C. auris 8971 = experiment: as above; type: cell-based, Candida auris; details: Candidozyma auris, 8971; Table 4, extended panel; 24 hours, ≥50% inhibition; read-out: MIC C. auris 8971
Experimental: as §1, §2, §6, §4, §5, §7

C. auris 8977 = experiment: as above; type: cell-based, Candida auris; details: Candidozyma auris, 8977; Table 4, extended panel; 24 hours, ≥50% inhibition; read-out: MIC C. auris 8977
Experimental: as §1, §2, §6, §4, §5, §7

C. auris 8984 = experiment: as above; type: cell-based, Candida auris; details: Candidozyma auris, 8984; Table 4, extended panel; 24 hours, ≥50% inhibition; read-out: MIC C. auris 8984
Experimental: as §1, §2, §6, §4, §5, §7

[1] = NCPF8018, Table 4, common panel, 24 hours, ≥50% inhibition, read-out: MIC C. glabrata NCPF8018
[2] = NCPF3876, Table 4, common panel, 24 hours, ≥50% inhibition, read-out: MIC C. krusei NCPF3876
[3] = NCPF3209, Table 4, common panel, 24 hours, ≥50% inhibition, read-out: MIC C. parapsilosis NCPF3209
[4] = NCPF8760, Table 4, common panel, 24 hours, ≥50% inhibition, read-out: MIC C. tropicalis NCPF8760
[5] = NCPF8018, read-out: MIC C. Glabrata NCPF8018
[6] = NCPF3876, read-out: MIC C. Krusei NCPF3876
[7] = NCPF3209, read-out: MIC C. Parapsilosis NCPF3209
[8] = NCPF8760, read-out: MIC C. Tropicalis NCPF8760

Row | SMILES | MIC (C. albicans NCPF3281) | MIC (C. glabrata NCPF8018; [1]) | MIC (C. krusei NCPF3876; [2]) | MIC (C. parapsilosis NCPF3209; [3]) | MIC (C. auris TDG1912) | MIC (C. tropicalis NCPF8760; [4]) | MIC (C. glabrata NCPF8018; [5]) | MIC (C. krusei NCPF3876; [6]) | MIC (C. parapsilosis NCPF3209; [7]) | MIC (Candida auris TDG2211) | MIC (Candida auris TDG2506) | MIC (C. tropicalis NCPF8760; [8]) | MIC (Candida auris TDG1102) | MIC (Candida auris TDG2512) | MIC (C. auris 8971) | MIC (C. auris 8977) | MIC (C. auris 8984)
1 | OC(CN1CCC2(CCN(Cc3ccccc3)CC2)CC1)(Cn1cncn1)c1ccc(F)cc1F (stereo not shown) [Example 1, 1-(9-Benzyl-3,9-diazaspiro[5.5]undecan-3-yl)-2-(2,4-difluorophenyl)-3-(1H-1,2,4-triazol-1-yl)propan-2-ol] | 500 to 1000 ng/mL (≈ 1.04 to 2.08 µM) | ≤ 125 ng/mL | 1000 to 2000 ng/mL (≈ 2.08 to 4.15 µM) | 4000 to 8000 ng/mL (≈ 8.31 to 16.6 µM) | ≤ 125 ng/mL | 250 to 1000 ng/mL (≈ 0.519 to 2.08 µM) |  |  |  |  |  |  |  |  |  |  | 
2 | OC(CN1CCC2(CCN(c3ncc(F)cn3)CC2)C1)(Cn1cncn1)c1ccc(F)cc1F (stereo not shown) [Example 7, 2-(2,4-Difluorophenyl)-1-(8-(5-fluoropyrimidin-2-yl)-2,8-diazaspiro[4.5]decan-2-yl)-3-(1H-1,2,4-triazol-1-yl)propan-2-ol] | < 8 ng/mL | 250 ng/mL (≈ 0.528 µM) | 60 ng/mL (≈ 0.127 µM) | 4 ng/mL (≈ 0.00845 µM) | 120 ng/mL (≈ 0.253 µM) | 15 ng/mL (≈ 0.0317 µM) | 250 ng/mL (≈ 0.528 µM) | 60 ng/mL (≈ 0.127 µM) | 4 ng/mL (≈ 0.00845 µM) | 125 ng/mL (≈ 0.264 µM) | 500 ng/mL (≈ 1.06 µM) | 15 ng/mL (≈ 0.0317 µM) | 250 ng/mL (≈ 0.528 µM) | 30 ng/mL (≈ 0.0634 µM) | 30 ng/mL (≈ 0.0634 µM) | 2 ng/mL (≈ 0.00422 µM) | 120 ng/mL (≈ 0.253 µM)
3 | OC(CN1CCCN(c2ncc(F)cn2)CC1)(Cn1cncn1)c1ccc(F)cc1F (stereo not shown) [Example 8, 2-(2,4-Difluorophenyl)-1-(4-(5-fluoropyrimidin-2-yl)-1,4-diazepan-1-yl)-3-(1H-1,2,4-triazol-1-yl)propan-2-ol] | < 15 ng/mL | 250 ng/mL (≈ 0.577 µM) | 500 ng/mL (≈ 1.15 µM) | 15 ng/mL (≈ 0.0346 µM) | 2000 ng/mL (≈ 4.61 µM) | 1000 ng/mL (≈ 2.31 µM) |  |  |  | 1000 ng/mL (≈ 2.31 µM) | 8000 ng/mL (≈ 18.5 µM) |  | 1000 ng/mL (≈ 2.31 µM) | 2000 ng/mL (≈ 4.61 µM) | 120 ng/mL (≈ 0.277 µM) | 120 ng/mL (≈ 0.277 µM) | 120 ng/mL (≈ 0.277 µM)
4 | OC(CN1CCCC(Nc2ccc(Cc3ccccc3)cc2)CC1)(Cn1cncn1)c1ccc(F)cc1F (stereo not shown) [Example 9, 1-(4-((4-Benzylphenyl)amino)azepan-1-yl)-2-(2,4-difluorophenyl)-3-(1H-1,2,4-triazol-1-yl)propan-2-ol] | < 4 ng/mL | 125 ng/mL (≈ 0.241 µM) | 8 ng/mL (≈ 0.0155 µM) | ≤ 0.06 ng/mL | 500 ng/mL (≈ 0.966 µM) | 125 ng/mL (≈ 0.241 µM) | 125 ng/mL (≈ 0.241 µM) | 8 ng/mL (≈ 0.0155 µM) | ≤ 0.06 ng/mL | 250 ng/mL (≈ 0.483 µM) | 500 ng/mL (≈ 0.966 µM) | 500 ng/mL (≈ 0.966 µM) | 1000 ng/mL (≈ 1.93 µM) | 125 ng/mL (≈ 0.241 µM) | 120 ng/mL (≈ 0.232 µM) | 0.1 ng/mL (≈ 0.000193 µM) | 120 ng/mL (≈ 0.232 µM)
5 | OC(CN1CCCCN(c2cnccn2)CC1)(Cn1cncn1)c1ccc(F)cc1F (stereo not shown) [Example 17, 2-(2,4-Difluorophenyl)-1-(4-(pyrazin-2-yl)-1,4-diazocan-1-yl)-3-(1H-1,2,4-triazol-1-yl)propan-2-ol] | ≤ 125 ng/mL | 120 ng/mL (≈ 0.279 µM) | 4000 ng/mL (≈ 9.31 µM) | ≤ 125 ng/mL | 4000 to 16000 ng/mL (≈ 9.31 to 37.3 µM) | 4000 to 8000 ng/mL (≈ 9.31 to 18.6 µM) |  |  |  |  |  |  |  |  |  |  | 
6 | CC(C)COc1ccc(NC2CCN(CC(O)(Cn3cncn3)c3ccc(F)cc3F)CC2)cc1 (stereo not shown) [Example 84] | 1.95 ng/mL (≈ 0.00402 µM) | 60 ng/mL (≈ 0.124 µM) | 30 ng/mL (≈ 0.0618 µM) | 0.98 to 1.95 ng/mL (≈ 0.00202 to 0.00402 µM) |  | 125 ng/mL (≈ 0.257 µM) | 60 ng/mL (≈ 0.124 µM) | 30 ng/mL (≈ 0.0618 µM) | 0.98 to 1.95 ng/mL (≈ 0.00202 to 0.00402 µM) | 0.98 to 1.95 ng/mL (≈ 0.00202 to 0.00402 µM) | 30 ng/mL (≈ 0.0618 µM) | 125 ng/mL (≈ 0.257 µM) | 15.6 ng/mL (≈ 0.0321 µM) | 1.95 to 3.91 ng/mL (≈ 0.00402 to 0.00805 µM) | 1.95 to 3.91 ng/mL (≈ 0.00402 to 0.00805 µM) | 3.91 ng/mL (≈ 0.00805 µM) | 30 ng/mL (≈ 0.0618 µM)
7 | COc1ccc(Oc2ccc(NC3CCN(CC(O)(Cn4cncn4)c4ccc(F)cc4F)CC3)cc2)cc1 (stereo not shown) [Example 86] | 7.8 to 15.6 ng/mL (≈ 0.0146 to 0.0291 µM) | 500 ng/mL (≈ 0.934 µM) | 15 to 125 ng/mL (≈ 0.028 to 0.233 µM) | 0.98 to 7.8 ng/mL (≈ 0.00183 to 0.0146 µM) |  | 125 ng/mL (≈ 0.233 µM) | 500 ng/mL (≈ 0.934 µM) | 15 to 125 ng/mL (≈ 0.028 to 0.233 µM) | 0.98 to 7.8 ng/mL (≈ 0.00183 to 0.0146 µM) | 7.8 ng/mL (≈ 0.0146 µM) | 62.5 ng/mL (≈ 0.117 µM) | 125 ng/mL (≈ 0.233 µM) | 15 to 62.5 ng/mL (≈ 0.028 to 0.117 µM) | 7.8 ng/mL (≈ 0.0146 µM) | 0.98 to 30 ng/mL (≈ 0.00183 to 0.056 µM) | 0.98 to 3.9 ng/mL (≈ 0.00183 to 0.00728 µM) | 7.8 to 125 ng/mL (≈ 0.0146 to 0.233 µM)
